Data as given in US20250057832A1, “USE OF A CLASS OF 1,4-DIHYDRO-NAPHTHYRIDINE DERIVATIVES IN TREATMENT OF TUMORS” (NEURODAWN PHARMACEUTICAL CO., LTD., priority 2021, published 2025).

How the values were obtained:
[1] = tested on: human glioma cell line T98G; details: single drug, maximum drug concentration of 20 M, 6 hours
Protocol: T98G cells were stably passaged twice. […] The cells were cultured for 24 hours, and added with the compound solution prepared above to each well according to the grouping, such that the compound concentrations in the culture system were 0.1 M, 1 M, 5 μM, and 20 M, respectively. An equal volume of DMSO was added as a control well.
If bright vacuoles with clear border appeared in the observed field of view, and at least one of the following conditions was met: 1) a cell contained at least one vacuole with a diameter greater than 3 μm; 2) a cell contained 3 or more vacuoles with a diameter within the range of 0.5-3 μm; the cell was considered as a methuosis-positive cell.

[2] = tested on: T98G cells; assay: Vacuolation induction in T98G cells (Example 1); assay type: cell-based, human; details: for Vacuolation rate (%): 6 hours, mean±SD; for Induction of vacuolation in T98 cells: FIG. 1 and Table 1
Protocol: T98G cells were stably passaged twice. When the cell density reached more than 85%, the cells were digested with 0.05% trypsin-EDTA for 3 minutes, resuspended with the culture medium, and plated in a 12-well plate at a certain density, with each well system being 1 mL. The cells were cultured for 24 hours, and added with the compound solution prepared above to each well according to the grouping, so that the concentrations of the compounds in the culture system were respectively 5 μM, 10 μM, 20 μM, 40 μM, and 60 μM. An equal volume of DMSO was added as a control well.
After 6 hours of drug treatment, the plates were observed under a microscope with a 20× objective lens, and five fields of view were randomly selected for each well to take photos and record. If in the observed field of view, bright vacuoles with clear border appeared in the cell, and at least one of the following conditions was met: 1) a cell contained at least 1 vacuole with a diameter greater than 3 μm; 2) a cell contained 3 or more vacuoles with a diameter within the range of 0.5-3 μm, the cell was considered to be methuosis-positive cells.
Among them, CELL positive: the number of methuosis-positive cells; CELL normal: the number of cells with normal morphology

[3] = tested on: T98G cells; assay: Cell proliferation inhibition assay, T98G, CellCounting-Lite 2.0 (Example 1); assay type: cell-based, human; details: for IC50: Homo sapiens, T98G, 72 hours of drug treatment
Protocol: T98G cells were stably passaged twice. When the cell density reached above 85%, the cells were digested with 0.05% trypsin-EDTA for 3 minutes, resuspended, plated in a 96-well plate at the corresponding density, and cultured for 24 hours. The cells were treated with drugs at final concentrations of the culture system of 0.41 μM, 1.23 μM, 3.7 μM, 11.1 μM, 33.3 μM, and 100 μM, respectively. After 72 hours of drug treatment, cell viability was determined using CellCounting-Lite™ 2.0 kit. The plate was added with reagents at 100 µL/well according to the CellCounting-Lite™ 2.0 kit instructions, and shaken for 10 minutes. The luminescence value (LUM) as read on a multi-function plate reader, and the relative viability of the cells was calculated.
Relative viability of tumor cells V (%)=(LUM-LUMbackground)/(LUMnormal control−LUMbackground)×100%. LUMbackground was the background reading of the complete culture medium well added with the detection reagent. The half inhibitory concentration (IC50) was calculated using GraphPad Prism 8.0.1 statistical software.

[4] = tested on: U87MG-Luc glioblastoma cell in situ transplantation tumor; assay: S2 combined with TMZ in U87MG-Luc glioblastoma in situ transplantation tumor model in nude mice (Example 5); details: TMZ 3 mg/kg
Protocol: Before the transplantation, the U87MG-Luc cells were digested with 0.05%-trypsin-EDTA, resuspended with pre-cooled PBS to 4×10^7 cells/mL, and transferred to ice for later use. The nude mice were anesthetized with isoflurane gas, and then fixed on a stereotaxic machine in a prone position. The scalp of the nude mouse was disinfected with iodophor, and incised sagittally with a scalpel. The incision was cleaned with iodophor. The skull was exposed, and drilled with a skull drill extending 1.0 mm in front of the bregma and deviating the right side 2.0 mm. 5 μL of cell suspension (2×10^5 cells) was manually injected with a 10 μL flat-head microsyringe, with inserting the needle to a depth of 3.5 mm, withdrawing the needle 0.5 mm, and injecting for about 10 minutes. […]
On days 7, 14, and 21 after the transplantation, 200 μL of 15 mg/mL D-luciferin potassium salt solution, which was filtered and sterilized through a 0.22 μm filter, was injected intraperitoneally. […] Luorescence intensity was analyzed using Living Image software to obtain fluorescence intensity [p/s], which reflected the size of tumor tissue in the brain of experimental animals.
The survival conditions of experimental animals were monitored, and the animals' death dates were recorded timely.
Quantitative data are expressed as mean±standard error. […]

Compound | Induction of vacuolated cell phenotype [1] | Vacuolation rate (%) ([2]; 5 μM) | Vacuolation rate (%) ([2]; 10 μM) | Vacuolation rate (%) ([2]; 20 μM) | Vacuolation rate (%) ([2]; 40 μM) | Induction of vacuolation in T98 cells [2] | IC50 [3] | Rank of vacuolation-inducing activity among the derivatives [2] | Proliferation inhibitory activity on T98G (in words) ([3]; 72 hours) | Median survival period ([4]; vehicle 30) | Overall survival period ([4]; vehicle 33)
Fc1ccc(C(c2ccc(F)cc2)N2CCN(C/C=C/c3ccccc3)CC2)cc1 [flunarizine] | None of calcium channel inhibitors nifedipine, verapamil, diltiazem, and flunarizine with a maximum drug concentration of 20 M could induce a vacuolated cell phenotype |  |  |  |  |  |  |  |  |  | 
CC1=C(C(=O)OC(C)C)C(c2cccc(F)c2)c2c(nc3c(c2N)CC(C)(C)CC3)N1 (stereo not drawn) [Compound S6] |  | 0.00% | 10.5 ± 1.6% | 15.3 ± 1.3% | 52.3 ± 2.5% | can induce vacuolation | 20.5 µM |  |  |  | 
CCOC(=O)C1=C(C)Nc2nc3c(c(N)c2C1c1ccccc1)CCCC3 (stereo not drawn) [Compound S1] |  | 0.0% | 0.3 ± 0.6% | 2.23 ± 0.5% | 10.0 ± 5.6% | can induce vacuolation | 47.8 µM | weakest vacuolation-inducing activity | weak |  | 
CCOC(=O)C1=C(C)Nc2nc3c(c(N)c2[C@H]1c1ccccc1Cl)CC(C)(C)CC3 [(−)-S2] |  | 1.2 ± 1.7% | 21.9 ± 9.0% | 96.47 ± 2.4% |  | can induce vacuolation | 9.8 µM |  |  |  | 
COc1ccc([C@@H]2Sc3ccccc3N(CCN(C)C)C(=O)[C@@H]2OC(C)=O)cc1 [diltiazem] | None of calcium channel inhibitors nifedipine, verapamil, diltiazem, and flunarizine with a maximum drug concentration of 20 M could induce a vacuolated cell phenotype |  |  |  |  |  |  |  |  |  | 
Cn1nnc2c(C(N)=O)ncn2c1=O [TMZ, Temozolomide] |  |  |  |  |  |  |  |  |  | 33.5 days | 35 days
COCCOC(=O)C1=C(C)Nc2nc3c(c(N)c2C1c1ccccc1Cl)CC(C)(C)CC3 (stereo not drawn) [Compound S5] |  | 1.4 ± 1.4% | 10.7 ± 0.90% | 35.1 ± 1.3% |  | can induce vacuolation | 4.5 µM |  |  |  | 
C=CCOC(=O)C1=C(C)Nc2nc3c(c(N)c2C1c1cccc(F)c1)CC(C)(C)CC3 (stereo not drawn) [Compound S3] |  | 1.1 ± 1.5% | 5.34 ± 1.2% | 9.04 ± 3.8% | 57.4 ± 13.9% | can induce vacuolation | 7 µM |  |  |  | 
CCOC(=O)C1=C(C)Nc2nc3c(c(N)c2[C@@H]1c1ccccc1Cl)CC(C)(C)CC3 [(+)-S2] |  | 1.3 ± 1.6% | 10.0 ± 4.2% | 69.3 ± 6.9% |  | can induce vacuolation | 5.3 µM |  |  |  | 
C#CCOC(=O)C1=C(C)Nc2nc3c(c(N)c2C1c1cccc(F)c1)CC(C)(C)CC3 (stereo not drawn) [Compound S4] |  | 0.6 ± 1.4% | 5.0 ± 1.3% | 10.43 ± 1.0% | 76.9 ± 12.1% | can induce vacuolation | 12.7 µM |  |  |  | 
